Measurements published in ChEMBL document CHEMBL1146881, “Improved replicon cellular activity of non-nucleoside allosteric inhibitors of HCV NS5B polymerase: from benzimidazole to indole scaffolds” (Bioorg Med Chem Lett, 2006).
Activity calls are given as the source filed them. The calls are words filed in the database; no cut-off is given here.

Experiments:
[1] = biological target: RNA-directed RNA polymerase (Hepacivirus hominis, UniProt O39930); assay: Inhibition of HCV 1b NS5B delta21 RNA dependent RNA polymerase by SPA; design: species or system Hepatitis C virus subtype 1b
Sequence of RNA-directed RNA polymerase (O39930 whole entry): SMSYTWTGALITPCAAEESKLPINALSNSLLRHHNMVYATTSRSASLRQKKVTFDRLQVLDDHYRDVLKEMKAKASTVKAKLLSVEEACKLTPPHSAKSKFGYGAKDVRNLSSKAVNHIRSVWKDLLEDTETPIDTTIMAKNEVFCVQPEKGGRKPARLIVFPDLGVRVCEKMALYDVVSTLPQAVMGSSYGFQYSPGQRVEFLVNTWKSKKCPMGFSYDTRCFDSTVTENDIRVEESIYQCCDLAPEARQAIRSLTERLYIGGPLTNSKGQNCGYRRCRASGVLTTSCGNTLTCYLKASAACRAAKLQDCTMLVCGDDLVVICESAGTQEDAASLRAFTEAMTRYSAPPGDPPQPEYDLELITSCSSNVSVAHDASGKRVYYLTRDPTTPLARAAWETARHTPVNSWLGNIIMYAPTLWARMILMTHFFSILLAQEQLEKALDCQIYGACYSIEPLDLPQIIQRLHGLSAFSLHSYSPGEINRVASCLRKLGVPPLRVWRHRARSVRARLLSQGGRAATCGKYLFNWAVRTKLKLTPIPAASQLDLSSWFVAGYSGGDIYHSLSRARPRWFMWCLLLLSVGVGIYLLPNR

[2] = biological target: Genome polyprotein (Human poliovirus 1 Mahoney, UniProt P03300); assay: Inhibition of poliovirus RNA dependent RNA polymerase; design: species or system Enterovirus C
Sequence of Genome polyprotein (P03300 1749-2209 limits assumed): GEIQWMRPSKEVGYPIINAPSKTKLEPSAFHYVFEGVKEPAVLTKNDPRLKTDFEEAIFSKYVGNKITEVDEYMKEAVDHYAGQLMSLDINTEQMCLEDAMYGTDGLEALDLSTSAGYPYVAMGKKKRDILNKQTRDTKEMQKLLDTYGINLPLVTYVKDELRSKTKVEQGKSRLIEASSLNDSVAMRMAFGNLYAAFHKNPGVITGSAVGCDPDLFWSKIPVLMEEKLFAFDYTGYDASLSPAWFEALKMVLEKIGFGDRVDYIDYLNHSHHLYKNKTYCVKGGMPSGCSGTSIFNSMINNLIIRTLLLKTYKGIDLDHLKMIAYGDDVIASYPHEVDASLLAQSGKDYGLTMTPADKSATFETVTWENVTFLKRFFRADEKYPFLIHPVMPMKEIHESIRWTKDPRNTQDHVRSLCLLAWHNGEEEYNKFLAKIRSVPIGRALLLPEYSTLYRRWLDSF

[3] = test system: Hepatitis C virus; assay: Inhibition of HCV RNA replication by replicon assay; type: functional, organism-based, Hepacivirus hominis; settings: for Activity: Hepacivirus hominis

SMILES: Cn1c(-c2ccoc2)c(C2CCCCC2)c2ccc(C(=O)O)cc21
- IC50 [1]: 16 nM
- IC50 [2]: 125000 nM
- EC50 [3]: 4200 nM

SMILES: Cn1c(-c2ccoc2)c(C2CCCC2)c2ccc(C(=O)O)cc21
- IC50 [1]: 21 nM
- EC50 [3]: 6600 nM

SMILES: Cn1c(-c2ccoc2)c(C2CCCCC2)c2ccc(C(=O)O)nc21
- IC50 [1]: 51 nM

SMILES: O=C(O)c1ccc2c(c1)nc(-c1ccccc1)n2C1CCCCC1
- IC50 [1]: 3100 nM
- Activity [3]: inactive

SMILES: Cn1c(-c2ccoc2)c(C2CCCC2)c2ccc(C(=O)O)c(O)c21
- IC50 [1]: 75 nM
- EC50 [3]: 19000 nM

SMILES: Cc1c(-c2ccoc2)n(C2CCCCC2)c2ccc(C(=O)O)cc12
- IC50 [1]: 44 nM
- EC50 [3]: > 10000 nM

SMILES: O=C(O)/C=C/c1cc(-c2ccccn2)n(C2CCCCC2)n1
- IC50 [1]: > 100000 nM

SMILES: O=C(O)c1ccc2c(C3CCCC3)c(-c3ccoc3)oc2c1
- IC50 [1]: 81 nM
- EC50 [3]: 21000 nM

SMILES: O=C(O)c1ccc2c(c1)nc(-c1ccoc1)n2C1CCCCC1
- IC50 [1]: 1100 nM
- Activity [3]: inactive

SMILES: Cn1c(-c2ccccc2)c(C2CCCCC2)c2ccc(C(=O)O)nc21
- IC50 [1]: 80 nM
- EC50 [3]: 2200 nM

SMILES: Cn1c(-c2ccccc2)c(C2CCCCC2)c2ccc(C(=O)O)cc21
- IC50 [1]: 30 nM
- EC50 [3]: 6600 nM

SMILES: Cc1c(-c2ccccn2)n(C2CCCCC2)c2ccc(C(=O)O)cc12
- IC50 [1]: 820 nM
- EC50 [3]: > 10000 nM

SMILES: O=C(O)c1ccc2c(C3CCCC3)c(-c3ccoc3)[nH]c2c1
- IC50 [1]: 25 nM
- EC50 [3]: 6600 nM

SMILES: Cc1c(-c2ccccc2)n(C2CCCCC2)c2ccc(C(=O)O)cc12
- IC50 [1]: 180 nM
- EC50 [3]: > 10000 nM

SMILES: Cn1c(-c2ccoc2)c(C2CCCC2)c2ccc(C(=O)O)c(C(=O)O)c21
- IC50 [1]: 5300 nM

SMILES: O=C(O)c1ccc2c(C3CCCC3)c(-c3ccoc3)sc2c1
- IC50 [1]: 78 nM
- EC50 [3]: 22000 nM

SMILES: O=C(O)c1ccc2c(c1)S(=O)(=O)C(c1ccoc1)=C2C1CCCC1
- IC50 [1]: > 100000 nM

SMILES: Cn1c(-c2ccoc2)c(C2CCCC2)c2ccc(C(=O)O)c(Cl)c21
- IC50 [1]: 290 nM
- EC50 [3]: 37000 nM

SMILES: O=C(O)c1ccc2c(c1)nc(-c1ccoc1)n2C1CCCC1
- IC50 [1]: 2200 nM
- Activity [3]: inactive

SMILES: O=C(O)c1ccc2c(C3CCCCC3)c(-c3ccoc3)[nH]c2c1
- IC50 [1]: 30 nM
- IC50 [2]: > 125000 nM
- EC50 [3]: 6700 nM

SMILES: COC(=O)c1c(C(=O)O)ccc2c(C3CCCC3)c(-c3ccoc3)n(C)c12
- IC50 [1]: 480 nM
- EC50 [3]: 22000 nM

SMILES: O=C(O)c1ccc2c(C3CCCCC3)c(-c3ccccn3)[nH]c2c1
- IC50 [1]: 230 nM
- EC50 [3]: > 10000 nM

SMILES: O=C(O)/C=C/c1cc(C2CCCCC2)c(-c2ccccn2)[nH]1
- IC50 [1]: > 50000 nM

SMILES: COc1c(C(=O)O)ccc2c(C3CCCC3)c(-c3ccoc3)n(C)c12
- IC50 [1]: 340 nM
- EC50 [3]: 40000 nM

SMILES: Cn1c(-c2ccccn2)c(C2CCCCC2)c2ccc(C(=O)O)cc21
- IC50 [1]: 90 nM
- EC50 [3]: 3900 nM

SMILES: O=C(O)c1ccc2c(c1)nc(-c1ccccn1)n2C1CCCCC1
- IC50 [1]: 2700 nM
- Activity [3]: inactive

SMILES: O=C(O)c1ccc2c(C3CCCCC3)c(-c3ccccc3)[nH]c2c1
- IC50 [1]: 50 nM
- EC50 [3]: > 10000 nM
